This note sets out measurements from ChEMBL document CHEMBL1149973, “Inhibitory stereochemistry of N-chloroacetyl-N-hydroxyleucine methyl ester for thermolysin” (Bioorg Med Chem Lett, 1996).

The target of one assay is T1, Thermolysin (Bacillus thermoproteolyticus, UniProt P00800).
T1 sequence (P00800 whole entry): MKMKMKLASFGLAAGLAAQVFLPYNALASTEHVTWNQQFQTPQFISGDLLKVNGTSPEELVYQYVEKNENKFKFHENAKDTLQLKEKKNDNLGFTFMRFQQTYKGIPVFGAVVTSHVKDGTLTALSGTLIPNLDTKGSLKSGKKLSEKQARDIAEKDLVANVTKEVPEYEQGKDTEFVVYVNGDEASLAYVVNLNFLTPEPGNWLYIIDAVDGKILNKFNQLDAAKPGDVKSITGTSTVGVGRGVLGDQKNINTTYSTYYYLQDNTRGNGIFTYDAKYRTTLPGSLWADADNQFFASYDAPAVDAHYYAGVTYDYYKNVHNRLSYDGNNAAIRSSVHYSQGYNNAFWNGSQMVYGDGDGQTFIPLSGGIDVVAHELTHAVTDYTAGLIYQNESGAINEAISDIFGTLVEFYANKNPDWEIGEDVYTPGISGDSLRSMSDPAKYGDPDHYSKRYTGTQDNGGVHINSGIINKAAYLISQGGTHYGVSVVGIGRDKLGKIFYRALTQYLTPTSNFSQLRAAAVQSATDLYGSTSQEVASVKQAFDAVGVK
Briefly: Inhibitory activity against thermolysin expressed as Ki.

Assay [1] deals with T2, Thermolysin (Bacillus thermoproteolyticus) (UniProt P00800).
T2 sequence (whole entry): T1 sequence (P00800 whole entry)
Briefly: Inhibitory activity against thermolysin expressed as kinact.

The compound `COC(=O)C(CC(C)C)N(O)C(=O)CCl` (centres undefined) gave a Ki at Thermolysin of 7.5 mM. The same compound displayed a K inact in assay [1] of 0.0075 s⁻¹.
The compound `COC(=O)[C@H](CC(C)C)N(O)C(=O)CCl` had a Ki on Thermolysin of 4.5 mM. In assay [1], this compound had a K inact of 0.009 s⁻¹.
